Laboratory results taken from ChEMBL document CHEMBL5625175, “Quinazoline-based VEGFR-2 inhibitors as potential anti-angiogenic agents: A contemporary perspective of SAR and molecular docking studies” (Eur J Med Chem, 2023).
Converted amounts (≈) assume the structure as drawn. Blank lines part the entries; values can stand above or below the compound they belong to.

Assays:
Macrophage = test: cells; conditions: Homo sapiens, 48 h
MCF7 [1] = test: cells; conditions: Homo sapiens, MCF7, 48 h
NCI-H460 = test: cells; conditions: Homo sapiens, NCI-H460, 48 h
A549 [2] = test: cells; conditions: Homo sapiens, A549, 48 h
HEK293 = test: Cytotoxicity against HEK293 cells assessed as cell growth inhibition measured after 48 hrs by CCK-8 assay; assay type: functional, cell-based; conditions: Homo sapiens, HEK293, 48 h
L02 = test: Cytotoxicity against human L02 cells assessed as cell growth inhibition measured after 48 hrs by CCK-8 assay; assay type: functional, cell-based; conditions: L02, 48 h
MHCC97H = test: Antiproliferative activity against human MHCC97H cells assessed as reduction in cell viability incubated for 48 hrs by CCK-8 assay; assay type: functional, cell-based
HUVEC [3] = test: Antiproliferative activity against HUVEC cells assessed as reduction in cell viability incubated for 48 hrs by CCK-8 assay; assay type: functional, cell-based; conditions: Homo sapiens
HCT-116 [4] = test: Antiproliferative activity against human HCT-116 cells assessed as reduction in cell growth incubated for 24 hrs by MTT assay; assay type: functional, cell-based; conditions: HCT-116, 24 h
MCF7 [5] = test: Antiproliferative activity against human MCF7 cells assessed as reduction in cell growth incubated for 24 hrs by MTT assay; assay type: functional, cell-based; conditions: MCF7, 24 h
[6] = target: T1, Vascular endothelial growth factor receptor 1 (Homo sapiens, UniProt P17948); test: Inhibition of VEGFR-1 (unknown origin) by HTRF method
T1 sequence (P17948 whole entry): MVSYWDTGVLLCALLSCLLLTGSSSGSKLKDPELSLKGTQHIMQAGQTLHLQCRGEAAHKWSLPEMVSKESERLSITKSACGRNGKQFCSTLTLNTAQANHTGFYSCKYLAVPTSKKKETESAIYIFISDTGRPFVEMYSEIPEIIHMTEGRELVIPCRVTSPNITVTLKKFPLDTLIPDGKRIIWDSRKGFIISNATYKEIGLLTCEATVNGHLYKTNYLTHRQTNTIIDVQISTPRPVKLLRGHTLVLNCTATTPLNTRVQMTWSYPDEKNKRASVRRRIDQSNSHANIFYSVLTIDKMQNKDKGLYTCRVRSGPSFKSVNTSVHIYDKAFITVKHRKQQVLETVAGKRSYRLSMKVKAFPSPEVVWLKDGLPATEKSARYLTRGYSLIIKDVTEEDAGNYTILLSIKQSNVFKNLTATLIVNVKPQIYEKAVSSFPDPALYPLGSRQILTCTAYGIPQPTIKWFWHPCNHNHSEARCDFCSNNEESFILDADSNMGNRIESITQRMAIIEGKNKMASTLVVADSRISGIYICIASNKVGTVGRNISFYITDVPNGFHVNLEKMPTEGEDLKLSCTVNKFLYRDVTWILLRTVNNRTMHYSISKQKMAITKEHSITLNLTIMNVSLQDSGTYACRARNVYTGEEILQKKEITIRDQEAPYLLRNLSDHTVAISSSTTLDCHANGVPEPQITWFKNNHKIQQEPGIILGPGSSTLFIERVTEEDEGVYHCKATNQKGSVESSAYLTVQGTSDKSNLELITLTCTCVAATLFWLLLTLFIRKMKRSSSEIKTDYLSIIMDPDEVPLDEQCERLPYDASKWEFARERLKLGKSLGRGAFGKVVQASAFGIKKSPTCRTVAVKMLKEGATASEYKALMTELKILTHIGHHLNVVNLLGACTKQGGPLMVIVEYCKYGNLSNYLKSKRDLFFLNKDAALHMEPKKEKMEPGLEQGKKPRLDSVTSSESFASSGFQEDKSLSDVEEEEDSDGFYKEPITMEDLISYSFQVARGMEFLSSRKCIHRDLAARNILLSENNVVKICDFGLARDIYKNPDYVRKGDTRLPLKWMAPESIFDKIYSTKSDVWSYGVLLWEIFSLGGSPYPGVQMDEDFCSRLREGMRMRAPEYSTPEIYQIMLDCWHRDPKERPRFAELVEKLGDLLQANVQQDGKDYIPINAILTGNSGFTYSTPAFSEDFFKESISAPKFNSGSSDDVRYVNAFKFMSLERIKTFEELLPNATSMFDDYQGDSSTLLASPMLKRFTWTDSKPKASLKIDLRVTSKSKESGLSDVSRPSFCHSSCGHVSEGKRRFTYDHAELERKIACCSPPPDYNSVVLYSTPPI

[7] = target: T1, Vascular endothelial growth factor receptor 1; test: Inhibition of VEGFR-1 (unknown origin) at 10 uM relative to control
PC-3 = test: Antiproliferative activity against human PC-3 cells assessed as reduction in cell growth measured after 24 hrs by MTT assay; assay type: functional, cell-based; conditions: PC-3, 24 h
HepG2 [8] = test: Antiproliferative activity against human HepG2 cells assessed as reduction in cell growth measured after 24 hrs by MTT assay; assay type: functional, cell-based; conditions: HepG2, 24 h
MCF7 [9] = test: Antiproliferative activity against human MCF7 cells assessed as reduction in cell growth measured after 24 hrs by MTT assay; assay type: functional, cell-based; conditions: MCF7, 24 h
[10] = target: T2, Vascular endothelial growth factor receptor 2 (Homo sapiens, UniProt P35968); test: Inhibition of human VEGFR-2 using biotinylated synthetic peptide biotin-aminohexyl-EEEEYFELVAKKKK-NH2 as substrate pre-incubated for 30 mins and measured after 30 mins by FRET assay
T2 sequence (P35968 whole entry): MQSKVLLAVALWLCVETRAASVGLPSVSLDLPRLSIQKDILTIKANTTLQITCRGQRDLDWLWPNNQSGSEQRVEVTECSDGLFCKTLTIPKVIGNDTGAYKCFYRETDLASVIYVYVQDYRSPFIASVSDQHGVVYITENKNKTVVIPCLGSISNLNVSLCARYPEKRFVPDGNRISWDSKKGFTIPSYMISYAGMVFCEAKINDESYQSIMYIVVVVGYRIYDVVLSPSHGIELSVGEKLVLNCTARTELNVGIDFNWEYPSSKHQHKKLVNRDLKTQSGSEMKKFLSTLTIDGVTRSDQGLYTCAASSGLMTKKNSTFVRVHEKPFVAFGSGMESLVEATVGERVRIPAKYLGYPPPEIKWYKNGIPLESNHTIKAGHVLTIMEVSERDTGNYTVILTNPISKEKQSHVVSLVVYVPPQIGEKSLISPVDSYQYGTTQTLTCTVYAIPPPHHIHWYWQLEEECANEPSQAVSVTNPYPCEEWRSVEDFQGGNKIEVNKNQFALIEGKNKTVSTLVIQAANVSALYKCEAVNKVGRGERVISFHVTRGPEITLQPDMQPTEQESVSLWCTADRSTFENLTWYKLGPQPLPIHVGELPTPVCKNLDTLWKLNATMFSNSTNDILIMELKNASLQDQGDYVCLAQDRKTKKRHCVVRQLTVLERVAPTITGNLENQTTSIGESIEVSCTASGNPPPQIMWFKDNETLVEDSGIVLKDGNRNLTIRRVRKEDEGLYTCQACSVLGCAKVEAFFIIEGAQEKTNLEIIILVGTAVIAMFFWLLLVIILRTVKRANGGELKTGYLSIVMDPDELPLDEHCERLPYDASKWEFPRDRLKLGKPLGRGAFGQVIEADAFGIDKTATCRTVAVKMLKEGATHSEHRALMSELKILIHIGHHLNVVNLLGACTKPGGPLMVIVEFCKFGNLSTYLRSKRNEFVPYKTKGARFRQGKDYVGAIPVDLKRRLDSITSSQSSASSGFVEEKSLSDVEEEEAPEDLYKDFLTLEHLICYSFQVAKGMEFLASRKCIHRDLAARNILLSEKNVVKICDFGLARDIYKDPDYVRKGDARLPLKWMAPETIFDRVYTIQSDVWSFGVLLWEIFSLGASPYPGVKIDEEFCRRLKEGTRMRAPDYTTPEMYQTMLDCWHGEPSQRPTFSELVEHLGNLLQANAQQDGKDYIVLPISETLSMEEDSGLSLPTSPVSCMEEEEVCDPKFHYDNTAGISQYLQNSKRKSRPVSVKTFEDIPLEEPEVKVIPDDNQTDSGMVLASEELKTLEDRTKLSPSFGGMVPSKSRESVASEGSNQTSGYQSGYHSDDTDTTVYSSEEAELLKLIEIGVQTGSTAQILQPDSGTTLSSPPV

HUVEC [11] = test: Antiproliferative activity against VEGF-stimulated HUVEC cells assessed as cell growth inhibition measured after 24 hrs by BrdUrd incorporation based spectrophotometric analysis; assay type: functional; conditions: Homo sapiens
HCT-116 [12] = test: Antiproliferative activity against human HCT-116 cells assessed as reduction in cell viability measured after 48 hrs by MTT assay; assay type: functional, cell-based; conditions: HCT-116, 48 h
MCF7 [13] = test: Antiproliferative activity against human MCF7 cells assessed as reduction in cell viability measured after 48 hrs by MTT assay; assay type: functional, cell-based; conditions: MCF7, 48 h
MCF7 [14] = test: cells; conditions: Homo sapiens, MCF7, 48 h; remark: listed apart in the source
B16 = test: Antiproliferative activity against mouse B16 cells assessed as reduction in cell viability incubated for 48 hrs by MTT assay; assay type: functional, cell-based; conditions: B16, 48 h
HepG2 [15] = test: Cytotoxicity against human HepG2 cells assessed as cell growth inhibition; assay type: functional, cell-based
HCT-116 [16] = test: Cytotoxicity against human HCT-116 cells assessed as cell growth inhibition; assay type: functional, cell-based
HCT-116 [17] = test: cells; conditions: Homo sapiens, HCT-116, 48 h
WISH = test: Cytotoxicity against human WISH cells assessed as cell growth inhibition; assay type: functional, cell-based
[18] = target: Serine/threonine-protein kinase B-raf (Homo sapiens, UniProt P15056, V600E); test: Inhibition of B-RAF V600E mutant (unknown origin) using […] as substrate incubated for 40 mins in presence of [gamma33P]ATP by scintillation counter based kinase assay
Chain of Serine/threonine-protein kinase B-raf (Homo sapiens, UniProt P15056, V600E) (P15056 2-766 V600E limits assumed): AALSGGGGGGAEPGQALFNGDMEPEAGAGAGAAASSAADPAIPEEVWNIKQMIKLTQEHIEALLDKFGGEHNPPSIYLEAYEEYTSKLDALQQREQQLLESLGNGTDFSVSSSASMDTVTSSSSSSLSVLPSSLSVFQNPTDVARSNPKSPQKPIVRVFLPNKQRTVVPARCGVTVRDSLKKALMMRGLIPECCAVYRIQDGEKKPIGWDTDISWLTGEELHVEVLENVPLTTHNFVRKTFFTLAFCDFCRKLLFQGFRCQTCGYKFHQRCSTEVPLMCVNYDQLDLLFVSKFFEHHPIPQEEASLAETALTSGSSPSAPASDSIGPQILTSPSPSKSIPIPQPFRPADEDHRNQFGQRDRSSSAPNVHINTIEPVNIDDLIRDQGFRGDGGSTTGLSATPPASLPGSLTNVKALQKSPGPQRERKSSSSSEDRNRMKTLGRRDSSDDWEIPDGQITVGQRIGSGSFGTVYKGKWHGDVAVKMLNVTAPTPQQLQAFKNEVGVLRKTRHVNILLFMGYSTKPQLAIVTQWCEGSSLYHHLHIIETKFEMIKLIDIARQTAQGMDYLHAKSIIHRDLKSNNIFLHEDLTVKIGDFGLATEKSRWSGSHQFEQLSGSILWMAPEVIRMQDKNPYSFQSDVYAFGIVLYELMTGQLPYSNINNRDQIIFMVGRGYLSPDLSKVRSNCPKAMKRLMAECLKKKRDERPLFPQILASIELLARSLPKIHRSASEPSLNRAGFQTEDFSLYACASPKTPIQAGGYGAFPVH

[19] = target: T2, Vascular endothelial growth factor receptor 2; test: Inhibition of VEGFR-2 (unknown origin) kinase activity using poly(Glu-Tyr) at 4:1 ratio as substrate in presence of ATP incubated for 60 mins by ELISA
[20] = target: Epidermal growth factor receptor (Homo sapiens, UniProt P00533); test: Inhibition of human recombinant EGFR using poly(Glu-Tyr) as substrate at 4:1 ratio in presence of ATP incubated for 60 mins by ELISA analysis
[21] = target: RAF proto-oncogene serine/threonine-protein kinase (Homo sapiens, UniProt P04049); test: Inhibition of human recombinant C-Raf using Glu-Tyr-Met-Pro-Met-Glu as substrate incubated for 60 mins by radiometric kinase assay
Chain of RAF proto-oncogene serine/threonine-protein kinase (P04049 whole entry): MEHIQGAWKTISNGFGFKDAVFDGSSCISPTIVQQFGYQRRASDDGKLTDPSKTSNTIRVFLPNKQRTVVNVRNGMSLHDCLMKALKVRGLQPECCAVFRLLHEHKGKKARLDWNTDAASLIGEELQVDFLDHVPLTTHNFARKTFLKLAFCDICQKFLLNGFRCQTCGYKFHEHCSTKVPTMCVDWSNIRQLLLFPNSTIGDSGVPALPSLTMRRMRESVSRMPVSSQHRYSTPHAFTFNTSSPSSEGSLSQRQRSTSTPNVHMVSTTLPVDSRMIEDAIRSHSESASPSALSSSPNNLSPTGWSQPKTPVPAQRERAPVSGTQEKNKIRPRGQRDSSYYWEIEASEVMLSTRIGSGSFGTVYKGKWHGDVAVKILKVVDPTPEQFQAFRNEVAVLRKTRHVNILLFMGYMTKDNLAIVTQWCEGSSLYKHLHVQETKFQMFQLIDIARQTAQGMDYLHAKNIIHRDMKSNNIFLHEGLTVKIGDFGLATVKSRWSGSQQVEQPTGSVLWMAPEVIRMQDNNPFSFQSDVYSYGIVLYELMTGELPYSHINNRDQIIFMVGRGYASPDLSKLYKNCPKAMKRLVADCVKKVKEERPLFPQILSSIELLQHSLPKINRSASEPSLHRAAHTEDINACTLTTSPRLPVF

[22] = target: Serine/threonine-protein kinase B-raf (Homo sapiens, UniProt P15056); test: Inhibition of human recombinant B-Raf using […] as substrate incubated for 40 mins in presence of [gamma33P]ATP by scintillation counter based kinase assay
Chain of Serine/threonine-protein kinase B-raf (Homo sapiens, UniProt P15056) (P15056 whole entry): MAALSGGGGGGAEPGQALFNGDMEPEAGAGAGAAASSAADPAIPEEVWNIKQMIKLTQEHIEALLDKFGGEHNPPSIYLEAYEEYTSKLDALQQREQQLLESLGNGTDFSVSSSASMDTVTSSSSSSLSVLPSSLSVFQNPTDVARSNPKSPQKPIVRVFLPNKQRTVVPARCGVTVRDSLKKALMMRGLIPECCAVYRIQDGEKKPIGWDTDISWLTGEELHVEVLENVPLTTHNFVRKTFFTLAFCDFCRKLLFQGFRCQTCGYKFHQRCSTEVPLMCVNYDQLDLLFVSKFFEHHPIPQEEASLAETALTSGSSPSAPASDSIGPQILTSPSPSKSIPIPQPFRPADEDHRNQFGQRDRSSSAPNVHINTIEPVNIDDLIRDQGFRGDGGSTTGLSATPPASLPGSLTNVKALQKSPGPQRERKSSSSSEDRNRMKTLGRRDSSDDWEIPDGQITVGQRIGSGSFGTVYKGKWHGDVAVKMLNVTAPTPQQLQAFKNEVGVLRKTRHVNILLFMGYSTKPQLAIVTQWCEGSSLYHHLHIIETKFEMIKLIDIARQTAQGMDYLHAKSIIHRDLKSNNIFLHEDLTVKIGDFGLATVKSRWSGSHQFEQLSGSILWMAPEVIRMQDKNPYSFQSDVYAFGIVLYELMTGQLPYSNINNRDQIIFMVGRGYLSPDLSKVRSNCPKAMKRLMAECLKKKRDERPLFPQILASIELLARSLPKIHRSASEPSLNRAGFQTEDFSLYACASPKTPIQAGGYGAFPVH

[23] = target: T2, Vascular endothelial growth factor receptor 2; test: Inhibition of VEGFR-2 (unknown origin) by Kinase-Glo Max assay
[24] = Intrinsic clearance in human hepatocytes at 0.5 uM measured after 10 mins by LC-MS/MS analysis; assay type: ADME, cell-based, Hepatocyte
HT-29 = test: Antitumor activity against human HT-29 cells assessed as reduction in cell viability incubated for 48 hrs by CCK-8 assay; assay type: functional, cell-based; conditions: HT-29, 48 h
A549 [25] = test: Antitumor activity against human A549 cells assessed as reduction in cell viability incubated for 48 hrs by CCK-8 assay; assay type: functional, cell-based; conditions: A549, 48 h
MCF7 [26] = test: Antitumor activity against human MCF7 cells assessed as reduction in cell viability incubated for 48 hrs by CCK-8 assay; assay type: functional, cell-based; conditions: MCF7, 48 h
MDA-MB-231 [27] = test: Cytotoxicity against human MDA-MB-231 cells assessed as reduction in cell viability incubated for 24 hrs by MTT assay; assay type: functional, cell-based; conditions: MDA-MB-231, 24 h
MDA-MB-231 [28] = test: Cytotoxicity against human MDA-MB-231 cells assessed as reduction in cell viability incubated for 48 hrs by MTT assay; assay type: functional, cell-based; conditions: MDA-MB-231, 48 h
[29] = target: T2, Vascular endothelial growth factor receptor 2
MCF7 [30] = test: Growth inhibition of human MCF7 cells incubated for 24 hrs by MTT assay; assay type: functional
HepG2 [31] = test: Growth inhibition of human HepG2 cells incubated for 24 hrs by MTT assay; assay type: functional
HCT-116 [32] = test: Growth inhibition of human HCT-116 cells incubated for 24 hrs by MTT assay; assay type: functional

Compound: COc1cc2ncnc(Oc3ccc(NC(=O)C4(C(=O)Nc5ccc(F)cc5)CC4)cc3F)c2c2c1OCCO2
IC50 (HEK293): 15.1 µg/mL (≈ 27.5 µM)
IC50 (L02): 12.6 µg/mL (≈ 23 µM)
IC50 (MHCC97H): 58.6 µg/mL (≈ 107 µM)
IC50 (HUVEC [3]): 3.7 µg/mL (≈ 6.75 µM)

Compound: COc1cc2nccc(Oc3ccc(NC(=O)C4(C(=O)Nc5ccc(F)cc5)CC4)cc3)c2cc1OC [CABOZANTINIB]
IC50 (MHCC97H): 25 µg/mL (≈ 49.8 µM)
IC50 (HUVEC [3]): 2.7 µg/mL (≈ 5.38 µM)

Compound: COc1cccc2c1C(=O)c1c(O)c3c(c(O)c1C2=O)C[C@@](O)(C(=O)CO)C[C@@H]3O[C@H]1C[C@H](N)[C@H](O)[C@H](C)O1 [DOXORUBICIN]
IC50 (PC-3): 8.87 µg/mL (≈ 16.3 µM)
IC50 (HepG2 [8]): 7.94 µg/mL (≈ 14.6 µM)
IC50 (MCF7 [9]): 6.75 µg/mL (≈ 12.4 µM)

Compound: COc1cc2nc(-c3ccccc3)n(-c3nnc(-c4ccc(Cl)cc4)s3)c(=O)c2cc1OC
IC50 [10]: 3.8 nM
IC50 (HUVEC [11]): 5.5 nM

Compound: CNC(=O)c1cc(Oc2ccc(NC(=O)Nc3ccc(Cl)c(C(F)(F)F)c3)cc2)ccn1 [SORAFENIB]
IC50 (MCF7 [14]): 17.9 µM
IC50 (B16): 9.29 µM
IC50 (HepG2 [15]): 19.3 µM
IC50 (HCT-116 [16]): 6.82 µM
IC50 (HCT-116 [17]): 10.6 µM
IC50 (WISH): 17.5 µM

Compound: NC(=O)CCn1cc(-c2ccc3ncnc(Nc4cc(O)c(F)cc4F)c3c2)nn1
IC50 [18]: 51 nM
IC50 [19]: 7 nM
IC50 [20]: 73 nM
IC50 [21]: 1000 nM
IC50 [22]: 57 nM

Compound: CNC(=O)c1c(C)oc2cc(Oc3ncnc4cc(OC)c(OC)cc34)ccc12 [FRUQUINTINIB]
IC50 [23]: 35 nM

Compound: COc1cc2ncnc(Nc3cc(O)c(C)cc3F)c2cc1OC
CLH [24]: 91.9 µL/min

Compound: COCCOc1cc2ncnc(Oc3ccc(NC(=O)C4(C(=O)Nc5ccc(F)cc5)CC4)cc3F)c2c2c1OCCO2
IC50 (HEK293): 11.9 µg/mL (≈ 20.1 µM)
IC50 (L02): 12.2 µg/mL (≈ 20.6 µM)
IC50 (MHCC97H): 15.1 µg/mL (≈ 25.5 µM)
IC50 (HUVEC [3]): 12.6 µg/mL (≈ 21.3 µM)

The next lines start with results.

IC50 (MCF7 [1]): 1610 nM
IC50 (NCI-H460): 1230 nM
IC50 (A549 [2]): 1520 nM
Compound: Cc1ncc([N+](=O)[O-])n1CCOc1ncnc2ccc([N+](=O)[O-])cc12
IC50 (Macrophage): 290 µM

IC50 (HCT-116 [4]): 4.83 µM
IC50 (MCF7 [5]): 4.58 µM
Compound: CCn1c(SCC(=O)Nc2ccc(/C(C)=N/O)cc2)nc2ccccc2c1=O

IC50 [6]: 17 nM
inhibition [7]: 91%
Compound: COc1cc2ncnc(Nc3ccc(-c4noc(Cc5cc6ccccc6[nH]5)n4)cc3)c2cc1OC

IC50 (HCT-116 [12]): 1580 nM
IC50 (MCF7 [13]): 9.63 µM
Compound: O=C(CSc1nc2ccc(Cl)cc2c(=O)n1-c1ccccc1)N/N=C/c1cccc(F)c1

IC50 (HT-29): 810 nM
IC50 (A549 [25]): 1760 nM
IC50 (MCF7 [26]): 2490 nM
Compound: Cc1ccc(Nc2ncnc3cc(NC(=O)Nc4ccc(Cl)c(C(F)(F)F)c4)ccc23)cc1

IC50 [29]: 247 nM
Compound: COc1cccc(CNC(=O)CSc2nc3ccccc3c(=O)n2-c2ccc(S(N)(=O)=O)cc2)c1OC
IC50 (MDA-MB-231 [27]): 340 nM
IC50 (MDA-MB-231 [28]): 510 nM

GI50 (MCF7 [30]): 5.27 µM
GI50 (HepG2 [31]): 9.16 µM
IC50 [29]: 120 nM
GI50 (HCT-116 [32]): 5.69 µM
Compound: O=C(Cn1c(=O)c2ccccc2n(Cc2ccccc2)c1=O)Nc1ccc(C(=O)N/N=C/c2ccc(Cl)cc2)cc1
